Here are results for 25 molecules from US20260146044A1, “AROMATIC COMPOUND, PHARMACEUTICAL COMPOSITION CONTAINING SAME, AND USE THEREOF” (Increland, priority 2023, published 2026).

Common to all, as to assay type: cell-based
For experiment [1], the system named is secretion levels of IL-6 in PBMC cells. Put plainly: Inhibition of R848-induced IL-6 secretion in PBMC (IL-6 ELISA). The settings on record: human PBMC, 20 h compound pre-incubation, 24 h stimulation. The procedure:
This experiment was carried out in RPMI 1640 medium containing 10% FBS/1% penicillin/streptomycin, with each of the compounds at an initial test concentration of 1 μM. The compound DMSO was dissolved to form a stock solution, which was gradiently diluted 4-fold with the culture medium to a 4× working solution concentration. The diluted solution was added to a 96-well plate with 50 μL per well. PBMC (batch No.: HPP20062307, Sichuan Hope Bio-tech Co., Ltd.) cells were counted, and diluted to a concentration of 2×10^6/mL. The diluted cells were added to the above compound-containing 96-well plate with 150 μL per well, fully mixed, and incubated in an incubator with 5% CO2 at 37° C. for 20 h. Then, R848 was further added until a final concentration of […], and the cells were further incubated in the incubator with 5% CO2 at 37° C. for additional 24 h. Then, after centrifugation at 2,000 rpm for 4 min, the supernatant was diluted 110×, and detected using an IL-6 ELISA kit. An OD450 value was read, and converted to an IL-6 concentration based on a standard curve, to calculate an IC50 value by fitting a dose-effect curve using GraphPad 5.0.
Background: ELISA stands for enzyme-linked immunosorbent assay.

Experiment [2] shares this test system. Put plainly: Inhibition of LPS+IL-1β-induced IL-6 secretion in PBMC (IL-6 ELISA). As to conditions: human PBMC, 24 h compound pre-incubation, 20 h stimulation. As for the experimental part:
This experiment was carried out in RPMI 1640 medium containing 10% FBS/1% penicillin/streptomycin, with each of the compounds at an initial test concentration of 1 μM. The compound DMSO was dissolved to form a stock solution, which was gradiently diluted 5-fold with the culture medium to a 4× working solution concentration. The diluted solution was added to a 96-well plate with 50 μL per well. PBMC (batch No.: HPP20062307, Sichuan Hope Bio-tech Co., Ltd.) cells were counted, and diluted to a concentration of 2×10^6/mL. The diluted cells were added to the above compound-containing 96-well plate with 150 μL per well, fully mixed, and incubated in an incubator with 5% CO2 at 37° C. for 24 h. Then, LPS and […] were further added to final concentrations of 10 ng/mL and 20 ng/mL, respectively, and the cells were further incubated in the incubator with 5% CO2 at 37° C. for 20 h. Then, after centrifugation at 2,000 rpm for 4 min, the supernatant was diluted 110×, and detected using an IL-6 ELISA kit. An OD450 value was read, and converted to an IL-6 concentration based on a standard curve, to calculate an IC50 value by fitting a dose-effect curve using GraphPad 5.0.

Another experiment concerns the target T1, IRAK4 protein (Homo sapiens, UniProt Q9NWZ3).
T1 construct: Effects of Compounds on IRAK4 Protein Degradation in THP1 Cells; endogenous in cells; host or cells: THP-1 cells
T1 sequence (Q9NWZ3 1-460): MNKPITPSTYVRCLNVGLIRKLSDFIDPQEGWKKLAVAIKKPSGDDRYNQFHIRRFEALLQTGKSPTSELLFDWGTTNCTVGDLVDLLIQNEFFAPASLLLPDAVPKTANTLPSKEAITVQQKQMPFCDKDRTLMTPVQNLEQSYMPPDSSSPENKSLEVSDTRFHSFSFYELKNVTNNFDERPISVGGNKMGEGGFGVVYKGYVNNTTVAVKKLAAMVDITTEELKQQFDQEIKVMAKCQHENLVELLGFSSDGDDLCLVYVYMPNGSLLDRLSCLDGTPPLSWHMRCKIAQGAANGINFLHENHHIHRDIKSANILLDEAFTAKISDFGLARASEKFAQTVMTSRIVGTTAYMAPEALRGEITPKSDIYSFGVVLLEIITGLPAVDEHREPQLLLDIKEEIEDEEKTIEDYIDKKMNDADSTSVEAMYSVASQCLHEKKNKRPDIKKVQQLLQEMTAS
The experiment is described as follows: IRAK4 protein degradation in THP1 cells (Western blot). As to conditions: 24 h. As for the experimental part: THP-1 cells were inoculated into a 96-well cell culture plate, with 5×10^4 cells and 100 μL of a culture medium per well. The cell culture plate was cultured in an incubator with 5% CO2 at 37° C. overnight. 100 nl of a well-prepared compound stock solution and a compound-free DMSO stock solution were respectively added to cells per well. The cell culture plate was incubated in an incubator with 5% CO2 at 37° C. for 24 h. One protease inhibitor tablet and one phosphatase inhibitor tablet were added to 20 mL of a cell lysis buffer, and they were gently mixed until complete dissolution. DTT at a final concentration of 200 mM was added to a 4× sample preparation buffer to prepare a 4× sample preparation working solution. 20× electrophoretic buffer was diluted to 1× with ultrapure water. 20× transfer buffer was diluted to 1× with ultrapure water, and 20% methanol was added. […] IRAK4 protein primary antibody working solution: 20 μl of IRAK4 antibody added to 20 mL of a blocking solution; β-Actin primary antibody working solution: 2 μl of beta-actin (13E5) Rabbit mAb antibody added to 20 mL of a blocking solution. IRAK4 protein secondary antibody working solution: Donkey Anti-Goat IgG H&L (HRP) diluted 1/5,000 in a blocking solution; 3-Actin secondary antibody working solution: Anti-rabbit IgG, RP-linked antibody diluted 1/10,000 in a blocking solution. The cell culture plate was centrifuged at 3,000 rpm for 3 min, and most of the culture medium was carefully pipetted. The cell plate was inverted, and centrifuged at 300 rpm for 30 s. 45 μL of a lysis buffer was added to each well. The mixture was shaken at 300 rpm for 30 s, allowed to stand on ice for 30 min, and pipetted 30 times at 20 min. 6 μL of 4× sample preparation working solution was added to 18 μL of protein supernatant for sample preparation, and the mixture was heated at 70° C. for 10 min. Remaining protein samples were stored at −80° C. In the precast gel, 8 μl of sample was loaded into each well for electrophoresis at a constant voltage of 120 V for about 60 min, transferred using a PVDF membrane at a constant current of 300 mA for 1 h, then blocked with a blocking solution at room temperature for 1 h, and incubated in a primary antibody working solution at 4° C. overnight. The membrane was washed with 1×TBST buffer for 3×10 min. The secondary antibody working solution was incubated at room temperature for 1 h. The membrane was washed with 1×TBST buffer for 3×10 min, and a chromogenic solution was used for exposure and color development.
On the technique in general: Immunoblotting shows a protein as a band on a membrane.

For `COc1cc2nn([C@H]3CC[C@H](CN4CCC(c5cccc6c5c(C)nn6C5CCC(=O)NC5=O)CC4)CC3)cc2cc1NC(=O)c1cnn2ccc(N3CCOCC3)nc12` (stereo partly shown) [TM-27], the values for the IC50 in experiment [1] and in experiment [2] were 46.8 nM and 9.53 nM, respectively.
In the case of `COc1cc2nn([C@H]3CC[C@H](CN4CCN(c5cccc6c5c(C)nn6C5CCC(=O)NC5=O)CC4)CC3)cc2cc1NC(=O)c1cnn2ccc(N3CCOCC3)nc12` (stereo partly shown) [TM-28], half-maximal inhibition in experiment [1] (IC50) required 23.3 nM.
As for `COc1cc2nn([C@H]3CC[C@H](CN4CCN(c5cccc6c5c(C)nn6C5CCC(=O)NC5=O)CC4)CC3)cc2cc1NC(=O)c1cccc(C(F)(F)F)n1` (stereo partly shown) [TM-29], half-maximal inhibition in experiment [1] (IC50) was put at 56.3 nM.
`Cc1nn(C2CCC(=O)NC2=O)c2cccc(N3CC4CN(C[C@H]5CC[C@H](n6cc7cc(NC(=O)c8cnn9cccnc89)c(N8C[C@@H]9C[C@H]8CO9)cc7n6)CC5)CC4C3)c12` (stereo partly shown) [TM-46]: half-maximal inhibition in experiment [1] (IC50) required 46.8 nM.
Turning to `Cc1nn(C2CCC(=O)NC2=O)c2cccc(N3CCN(C[C@H]4CC[C@H](n5cc6cc(NC(=O)c7cnn8cccnc78)c(N7CCO[C@H](C)C7)cc6n5)CC4)CC3)c12` (stereo partly shown) [TM-54], the IC50 (usually the concentration at which inhibition is half-maximal) in experiment [1] was 4.26 nM; in experiment [2], 6.29 nM.
On to `Cc1nn(C2CCC(=O)NC2=O)c2cccc(N3CCN(C[C@H]4CC[C@H](N5Cc6cc(NC(=O)c7cnn8cccnc78)c(N7CCOCC7)cc6C5=O)CC4)CC3)c12` (stereo partly shown) [TM-58], for which the IC50 in experiment [1] was found to be 3.57 nM; in experiment [2], 3.53 nM.
For `Cc1nn(C2CCC(=O)NC2=O)c2cccc(N3CC4CN(C[C@H]5CC[C@H](N6Cc7cc(NC(=O)c8cnn9cccnc89)c(N8CCOCC8)cc7C6=O)CC5)CC4C3)c12` (stereo partly shown) [TM-59] the same measures were 2.21 nM and 3.57 nM.
Consider `Cc1nn(C2CCC(=O)NC2=O)c2cccc(N3CCN(C[C@H]4CC[C@H](n5cc6cc(NC(=O)c7cnn8cccnc78)c(N7C[C@H]8C[C@@H]7CO8)cc6n5)CC4)CC3)c12` (stereo partly shown) [TM-61], for which the IC50 was 3.01 nM in experiment [1] and 7.06 nM in experiment [2].
Consider `Cc1nn(C2CCC(=O)NC2=O)c2cccc(N3CCN(C[C@H]4CC[C@H](N5Cc6cc(NC(=O)c7cnn8cccnc78)c(N(C)C)cc6C5=O)CC4)CC3)c12` (stereo partly shown) [TM-65], for which the IC50 in experiment [2] was determined as 7.15 nM.
For `Cc1nn(C2CCC(=O)NC2=O)c2cccc(N3CCC(CN4CCC(N5Cc6cc(NC(=O)c7cnn8cccnc78)c(N7CCOCC7)cc6C5=O)CC4)CC3)c12` (stereo not shown) [TM-67], the IC50 in experiment [2] came out at 52.8 nM.
`Cc1nn(C2CCC(=O)NC2=O)c2cccc(N3CCC(CN4CCC(N5Cc6cc(NC(=O)c7cnn8cccnc78)c(N7CCCOCC7)cc6C5=O)CC4)CC3)c12` (stereo not shown) [TM-68] registered an IC50 in experiment [2] of 3.23 nM.
The molecule `Cc1nn(C2CCC(=O)NC2=O)c2cccc(N3CCC(CN4CCC(N5Cc6cc(NC(=O)c7cnn8cccnc78)c(N7CCO[C@H](C)C7)cc6C5=O)CC4)CC3)c12` (stereo partly shown) [TM-69] displayed an IC50 in experiment [2] of 22.9 nM.
Molecule `Cc1nn(C2CCC(=O)NC2=O)c2cccc(N3CCN(C[C@H]4CC[C@H](n5cc6cc(NC(=O)c7cnn8cccnc78)c(N(C)C)cc6n5)CC4)CC3)c12` (stereo partly shown) [TM-70] gave an IC50 in experiment [2] of 1.18 nM.
On the same count and under the same terms, the same measure for `Cc1nn(C2CCC(=O)NC2=O)c2cccc(N3CCC(CN4CCC(n5cc6cc(NC(=O)c7cnn8cccnc78)c(N(C)C)cc6n5)CC4)CC3)c12` (stereo not shown) [TM-71]: 24.9 nM; for `Cc1nn(C2CCC(=O)NC2=O)c2cccc(N3CCC(CN4CCC(n5cc6cc(NC(=O)c7cnn8cccnc78)c(N7CCO[C@H](C)C7)cc6n5)CC4)CC3)c12` (stereo partly shown) [TM-72]: 6.82 nM; for `Cc1nn(C2CCC(=O)NC2=O)c2cccc(N3CCN(C[C@H]4CC[C@H](n5cc6cc(NC(=O)c7cnn8cccnc78)c(N7CCOC[C@H]7C)cc6n5)CC4)CC3)c12` (stereo partly shown) [TM-73]: 43.8 nM.
`Cc1nn(C2CCC(=O)NC2=O)c2cccc(N3CCN(C[C@H]4CC[C@H](n5cc6cc(NC(=O)c7cnn8cccnc78)c(N7CCOC[C@@H]7C)cc6n5)CC4)CC3)c12` (stereo partly shown) [TM-74] registered an IC50 in experiment [2] of 29.4 nM. The IC50 values of the last two molecules are within 1.5-fold of each other.
Take `Cc1nn(C2CCC(=O)NC2=O)c2cccc(N3CCN(C[C@H]4CC[C@H](n5cc6cc(NC(=O)c7cnn8cccnc78)c(N7CCCOCC7)cc6n5)CC4)CC3)c12` (stereo partly shown) [TM-79]: inhibition in experiment [2] was half-maximal at 39 nM (IC50).
Regarding `Cc1nn(C2CCC(=O)NC2=O)c2cccc(N3CCC(CN4CCC(n5cc6cc(NC(=O)c7cnn8cccnc78)c(N7CCCOCC7)cc6n5)CC4)CC3)c12` (stereo not shown) [TM-82], in experiment [2], the 50% inhibitory concentration (IC50) worked out at 36.5 nM. The IC50 values of the last two molecules are within 1.5-fold of each other.
`Cc1nn(C2CCC(=O)NC2=O)c2cccc(N3CCCN(C[C@H]4CC[C@H](n5cc6cc(NC(=O)c7cnn8cccnc78)c(N(C)C)cc6n5)CC4)CC3)c12` (stereo partly shown) [TM-96] had an IC50 in experiment [2] of 7.18 nM. The DC50 (commonly the concentration at which degradation of the target reaches its halfway point) at IRAK4 protein stood at 0.58 nM.
For `Cc1nn(C2CCC(=O)NC2=O)c2cccc(N3CC4CN(C[C@H]5CC[C@H](n6cc7cc(NC(=O)c8cnn9cccnc89)c(N(C)C)cc7n6)CC5)CC4C3)c12` (stereo partly shown) [TM-102] the same measures were 5.94 nM and 0.9 nM.
In turn, `Cc1nn(C2CCC(=O)NC2=O)c2ccnc(N3CCN(C[C@H]4CC[C@H](n5cc6cc(NC(=O)c7cnn8cccnc78)c(N(C)C)cc6n5)CC4)CC3)c12` (stereo partly shown) [TM-103] came in with an IC50 in experiment [2] of 0.72 nM.
In experiment [2], `Cc1nn(C2CCC(=O)NC2=O)c2cncc(N3CCC(CN4CCC(n5cc6cc(NC(=O)c7cnn8cccnc78)c(N(C)C)cc6n5)CC4)CC3)c12` (stereo not shown) [TM-106] registered an IC50 of 54.9 nM. Further, the DC50 on IRAK4 protein was found to be 0.044 nM.
For `Cc1nn(C2CCC(=O)NC2=O)c2ccnc(N3CCC4(CC3)CN(C[C@H]3CC[C@H](n5cc6cc(NC(=O)c7cnn8cccnc78)c(N(C)C)cc6n5)CC3)C4)c12` (stereo partly shown) [TM-113] the same measures were 0.62 nM and 1.06 nM.
In experiment [2], `Cc1nn(C2CCC(=O)NC2=O)c2nccc(N3CCC4(CC3)CN(CC3CCC(n5cc6cc(NC(=O)c7cnn8cccnc78)c(N(C)C)cc6n5)CC3)C4)c12` (stereo not shown) [TM-114] gave an IC50 of 4.79 nM.
